Results from the NIST ThermoML archive (doi:10.1021/acs.jced.6b00751).
Numbers after ± are expanded uncertainties.

Conditions: 101.33 kPa, Liquid, Vibrating tube method

| mass density (298.15 K) | mass density (313.15 K) | mass density (333.15 K) | mass density (353.15 K) | SMILES |
| --- | --- | --- | --- | --- |
| 1369.9 ± 18 kg/m3 | 1350.4 ± 26 kg/m3 | 1325.2 ± 21 kg/m3 | 1288.4 ± 39 kg/m3 | CCCCn1cc[n+](C)c1.F[P-](F)(F)(F)(F)F [1-butyl-3-methylimidazolium hexafluorophosphate] |
| 1234.1 ± 18 kg/m3 | 1219.1 ± 18 kg/m3 | 1199.1 ± 27 kg/m3 | 1170.4 ± 39 kg/m3 | CCOS(=O)(=O)[O-].CCn1cc[n+](C)c1 [1-ethyl-3-methylimidazolium ethyl sulfate] |
